Where two headings read alike, the source gives them in different places.
Test system: T1, PL-GOS
T1 construct: synthetic gene; N-terminal His6 with TEV site, tag cut by TEV protease; E. coli BL21(DE3) strain TMBL1503, pET-11a
Test: pNP release, OD405, Lineweaver-Burk
Type: biochemical, metagenome: ocean surface water (Global Ocean Sampling)
Conditions: 50 mM Tris-HCl pH 7.3, 20°C, 65 nM enzyme
Text: pNP release, OD405, Lineweaver-Burk on PL-GOS

SMILES	Km (read-out: pNP-butyrate)	Km (substrate above 20 μM (non-Michaelis-Menten below), read-out: pNP-palmitate)
CCCC(=O)Oc1ccc([N+](=O)[O-])cc1 [pNP-butyrate]	66.7 µM	
CCCCCCCCCCCCCCCC(=O)Oc1ccc([N+](=O)[O-])cc1 [pNP-palmitate]		68.1 µM

— paper PMC4602143, “A combined bioinformatics and functional metagenomics approach to discovering lipolytic biocatalysts” (Frontiers in Microbiology, 2015)
